# Data from paper PMC12814185, “Receptor-Mediated Shuttling of a D‑Amino Acid Peptide Achieves High Nanomolar Cytosolic Concentrations” (Journal of the American Chemical Society, 2025).
# Like-named read-outs stand apart in the source and are kept apart here. Bridges are numbered along the chain shown (N, C = ends). Roman numbers before positions name the chains, in order. Triazole bridges read from a SMILES are 1,4-linked. Where no end group is shown, it is not given here. Side-chain parts run from the residue outwards. [ ]: non-standard residue; d: D form. The star is where a group is joined. X1 = CN1C(=CC=CC=CC2=[N+](CCCCCC(=O)*)c3ccc(S(=O)(=O)[O-])cc3C2(C)C)C(C)(C)c2cc(S(=O)(=O)O)ccc21; Lys(N3) = [N-]=[N+]=NCCCC[C@H](N)C(=O)O; Cit = NC(=O)NCCC[C@H](N)C(=O)O; d(hCys) = N[C@H](CCS)C(=O)O; PEG3 = NCCOCCOCCOCCC(=O)O; Pra = C#CC[C@H](N)C(=O)O
# Columns and labels:
# CMKLR1 = target: T1, CMKLR1 (Homo sapiens, UniProt Q99788); test: Ca2+ flux assay in COS-7_CMKLR1-eYFP_Δ6Gαqi4myr cells; type: cell-based; conditions: maximum signal over baseline normalized to peptide 1, at least two independent experiments in duplicate
# T1 construct: expressed in transfected cells; host or cells: COS-7 (stably transfected, CMKLR1-eYFP + Δ6Gαqi4myr)
# T1 sequence (Q99788 1-373): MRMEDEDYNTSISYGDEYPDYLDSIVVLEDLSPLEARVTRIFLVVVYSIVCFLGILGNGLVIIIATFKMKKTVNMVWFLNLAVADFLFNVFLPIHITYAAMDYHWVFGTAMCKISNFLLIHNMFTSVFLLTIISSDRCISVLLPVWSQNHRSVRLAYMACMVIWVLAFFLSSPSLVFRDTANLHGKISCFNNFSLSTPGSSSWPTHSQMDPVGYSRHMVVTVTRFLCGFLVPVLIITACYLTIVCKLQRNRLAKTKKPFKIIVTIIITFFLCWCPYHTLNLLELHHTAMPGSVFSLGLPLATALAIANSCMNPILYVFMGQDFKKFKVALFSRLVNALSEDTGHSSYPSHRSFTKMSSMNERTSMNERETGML
# Method: (C) Activity of the cyclic chemerin-9 (cC9) derivatives at CMKLR1 tested in a Ca^2+ flux assay. Data points represent the mean ± SEM of at least two independent experiments performed in duplicate.
# Calcium flux assay was performed with cells expressing CMKLR1 and the chimeric G protein Δ6Gαqi4myr.
# The stably transfected COS-7_CMKLR1-eYFP_ Δ6Gαqi4myr cells were seeded at 25,000 cells per well into poly-ᴅ-lysine-coated 96-well plates (black µCLEAR, Greiner). The next day, cells were incubated with 2.3 µM Fluo-2-AM (Abcam) and 0.06% (v/v) Pluronic-F127 (Sigma) in assay buffer (2.5 mM probenecid (Sigma), 20 mM 4-(2-hydroxyethyl)-1-piperazineethanesulfonic acid (HEPES, Sigma) in Hanks' Balanced Salt Solution (HBSS, Biowest), pH 7.5) for 1 h. This solution was replaced by assay buffer, and basal Ca2+ signal (λex = 485 nm, λem = 525 nm) was measured for 20 s with a Flexstation 3 plate reader (Molecular Devices). Peptide dilutions were added, and the Ca2+ response was measured for 40 s. The maximum signal over baseline was calculated and normalized to peptide 1 (N3-cC9). Non-linear regression was performed using Prism 10 (GraphPad). Experiments were performed in technical duplicates and at least
# [1] = system: HEK293_CMKLR1-eYFP, HMEC-1, MDA-MB-231 and THP-1 cells; test: Quantification of total cellular peptide uptake in cell lysate; type: cell-based; conditions: 1 µM peptide, 72 h, fluorescence in lysate, all cell lines; performed thrice
# Method: page 7: Quantification of total cellular peptide uptake of different cell lines MDA-MB-231 cells and stably transfected HEK293_CMKLR1-eYFP cells were seeded at 165,000 cells per well and HMEC-1 cells at 55,000 cells per well into poly-ᴅ-lysine coated 12-well plates in their respective cell culture medium. […] the cells and incubated for 72 h. Cells were then washed with PBS and detached with trypsin/EDTA. […] Suspended cells were washed thrice with Fluorobrite DMEMTM and collected by centrifugation at 500 g for 5 min after each step. Finally, cells were resuspended in […] Fluorobrite DMEMTM and cell density was determined with an automated cell counter (Cell Drop, DeNovix). Cell suspensions were then lysed by ultrasonic homogenization (U[…], Hielscher) for 2 × 10 s on ice to prevent self-quenching of Cy5 due to high local concentrations in vesicles. […] Quantification of receptor-mediated uptake in CMKLR1-expressing cell lines. (A) Cell-surface enzyme-linked immunosorbent assay (ELISA) for the quantification of CMKLR1 expression of different cell lines. […] For quantification, cells were detached, counted, lysed by ultrasonic homogenization, and fluorescence was measured in the lysate. Total peptide uptake per cell was calculated from a dilution series of Cy5-labeled peptide with known concentration. […]
substance,measurement,setting,value
I: GSVSHHHHHHGGHHHH[PEG3][dK]([PEG3-X1])[dD][dW][dW][dP][dL][dA][dF][dE][dA][dL][dL][dR]GEV[Cit][PEG3][Pra]-NH2 / II: Ac-[Lys(N3)]YFP[d(hCys)]QFAFC-OH (triazole I:36-II:1; disulfide II:5-II:10) [3Cy],EC50,CMKLR1; read-out: EC50,220 nM
same,EC50,CMKLR1; read-out: pEC50 ± SEM (converted),219 nM
same,total peptide uptake per cell,[1],uptake slightly higher than that of 2Cy
